What was measured:
[1] = Cmax in C57BL/6J mouse CSF at 70 mg/kg, ip measured at 20 to 40 mins by CE-UV analysis; format: ADME, organism-based, Cerebrospinal fluid; design: dose 70 mg/kg, route intraperitoneal
[2] = Ratio of AUC in C57BL/6J mouse CSF to AUC in C57BL/6J mouse serum; format: ADME
[3] = AUC in C57BL/6J mouse serum at 70 mg/kg, ip by CE-UV analysis; format: ADME, organism-based, Plasma; design: dose 70 mg/kg, route intraperitoneal
[4] = Half life in C57BL/6J mouse serum at 70 mg/kg, ip by CE-UV analysis; format: ADME, organism-based; design: dose 70 mg/kg, route intraperitoneal
[5] = AUC in C57BL/6J mouse CSF at 70 mg/kg, ip by CE-UV analysis; format: ADME, organism-based; design: dose 70 mg/kg, route intraperitoneal
[6] = Drug uptake in C57BL/6J mouse eye at 70 mg/kg, ip measured at 20 to 40 mins by CE-UV analysis; format: ADME, organism-based; design: dose 70 mg/kg, route intraperitoneal; conditions: in vivo
Brain = assay: Drug uptake in C57BL/6J mouse brain at 70 mg/kg, ip measured at 20 to 40 mins by CE-UV analysis; format: ADME, organism-based; design: dose 70 mg/kg, route intraperitoneal; conditions: in vivo

With Cn1c(CCCC(=O)O)nc2cc(N(CCCl)CCCl)ccc21 [BENDAMUSTINE] the Cmax [1] was 393 µM, the “Ratio AUC” value [2] was 35% and the AUC [3] was 575 µM·h. For the same compound, the half-life [4] was 40 min, the AUC [5] was 210 µM·h and the Drug uptake [6] was “Active”. The Drug uptake (Brain) was “Active”.
